Source: patent US20070015232A1, “Mitotic index assay” (DiscoveRx, Inc., priority 2005, published 2007)

How the values were obtained:
[1] = test system: C2C12+EA-NLS/NRS+GR-PL cells; experiment: EFC mitotic index assay, C2C12+EA-NLS/NRS+GR-PL cells (Stanford GR cells); type: cell-based, mouse; conditions: for Avg luminescence readout / R1 luminescence readout / R3 luminescence readout / Ratio (Avg vs 0 conc): 24 hours, 30 min read
Experimental: (§1) In all experiments described, 20,000 cells/well were plated in a 96 well Corning clear bottom white plate in a total volume of 100 μL. The cells were treated for 24 hours with 5 μL of either the appropriate vehicle control or varying concentrations of the six compounds listed above. The next day, 100 μL of Tropix/ABI Gal screen cell lysis buffer/substrate mixture (24:1 ratio of component) was added to the cells/media and the plate was read on the Victor II luminescent plate reader at 30, 60 and 120 minutes after the lysis/substrate addition.
(§2) The initial test of the cell cycle arresting compounds was performed on a double stable cell line having both of the constructs expressing the EA-NLS/NRS and GR-PL. (PL is β-galactosidase enzyme donor fragment and EA is the enzyme acceptor fragment available from DiscoveRx, Fremont, CA.). The parental line, C2C12 is derived from mouse muscle cells. In the experiments in which EA-NLS/NRS and GR-PL are expressed in the C2C12 parental cell line, the constructs were generated by subcloning the human GR sequence into a MFG-based retroviral vector that had been molecularly altered in a lab at Stanford. An MFG vector is described in U.S. Pat. No. 6,544,771. The EA-NLS/NRS fragment was subcloned into a wzl-based retroviral vector again molecularly altered in a lab at Stanford. In the experiments performed using a CHO-K1 parental cell line background the EA-NLS/NRS was subcloned into the Kpn I and Xba I sites of pcDNA3.1 Hygro vector from Invitrogen (catalog #V870-20). The plasmid was introduced into the cells via FuGene6 (Roche) transfection reagent. Cells were selected in the presence of 250 μg/mL of Hygromycin and single cell clones isolated that expressed the EA-NLS/NRS. The human GR gene was cloned by PCR and subcloned into the Xho I and Bam HI sites of the DiscoveRx vector-pCMV-myc-PL (C3). The plasmid was introduced into the selected EA-NLS/NRS expressing clone isolated above by FuGene 6 transfection. Another round of screening in the presence of 300-500 μg/mL of G418 was used to select GR-PL transfected clones. Clonal selection was performed to finally identify the clone that was used in these studies. In the studies using the CHO-K1+cyto-EA and cJUN-PL, the same Invitrogen pcDNA3.1 Hygro vector was used to express EA. In this case, the EA fragment was subcloned into the Kpn I/Not I sites of pcDNA3.1 Hygro. The plasmid DNA was introduced as described above using FuGene6 reagent. Cells were selected in the presence of 250 μg/mL of hygromycin and clonal selection was performed. The c-Jun gene was generated by PCR using an existing template copy of the gene and then subcloned into the Xho I/Bam HI sites of pCMV-PL-myc (C3).

[2] = test system: CHO-K1+EA-NLS/NRS+GR-PL cells; experiment: EFC mitotic index assay, CHO-K1+EA-NLS/NRS+GR-PL cells, antibiotic selected pool (DX M19/GR pool); type: cell-based; conditions: 24 hours, 30 min read
Experimental: as §1, §2
In the next experiment, an antibiotic selected pool population of CHO-K1 cells that express EA-NLS/NRS and GR-PL were tested with the same six set of cell cycle blocking compounds. […] FIGS. 2a and 2b show the immunofluorescence localization of EA and GR-PL in that the blue DAPI nuclear staining can be seen to be concentrated in the nucleus, while the green fluorescein stain on the antibody (from Abcam PLC) to the glucocorticoid receptor is seen in the cytoplasm. […] Again, six tables are presented one for each of the six drugs tested.
This only occurs with compounds that block the cells in mitosis, allowing EA and ProLabel to complement.

[3] = test system: Clone #69 CHO-K1 cells expressing EA-NLS/NRS and GR-PL; experiment: EFC assay in stable clone #69 (CHO-K1, EA-NLS/NRS and GR-PL) with or without RU486 pre-incubation; type: cell-based; conditions: for Avg luminescence readout / R1 luminescence readout / R3 luminescence readout / Ratio (Avg vs 0 conc): overnight, vehicle pre-incubation
Experimental: In the next experiment, a stable clone (clone #69) expressing both EA-NLS/NRS and GR-PL was isolated in a CHO-K1 parental background. […] 20,000 cells/well were plated in a 96 well white coming multi-well plate and allowed to adhere overnight. The next day, the cells were washed two times with serum free F12 media and 100 μL of serum free F12 media was added to the cells. The cells were then incubated in either vehicle (ethanol-1% final concentration) or 10 μM RU486 for one hour. To the cells, three different concentrations of dexamethasone (300, 100, 30 μM) (an agonist of GR), RU486 (30, 10, 3.33 μM), colchicine (1, 0.3, 0.1 μ/mL) or nocodazole (10, 3.33, 1.11 μg/mL) were added and the incubation went overnight at 37° C. with 5% CO2. The next day, the media was aspirated off and 100 μL of Tropix/ABI Gal screen cell lysis/substrate reagent was added to the cells. The plate was read on the Victor II reader at 30, 60 and 120 minutes.

[4] = test system: CHO-K1+cyto-EA cells transfected with cJUN-PL; experiment: EFC mitotic index assay, CHO-K1+cyto-EA cells transiently transfected with cJUN-PL; type: cell-based; conditions: for Avg luminescence readout / R1 luminescence readout / R3 luminescence readout / Ratio (Avg vs 0 conc): overnight
Experimental: as §2
To further test the concept of sequestering of one β-galactosidase enzyme fragment in the nucleus (in this case PL) while localizing the other component in the cytoplasm (in this case EA) the following experiment was carried out. […] The cyto-EA cells were transiently transfected with cJUN-PL plasmid DNA. Two days after the transfection, the cells were re-plated into a 96 well Corning white clear bottom multiwell plate at 20,000 cells/well. The cells were allowed to adhere overnight and the next day were treated with titrating concentrations of the six different cell cycle blocking compounds. The incubation was carried out overnight. The next day the media was removed from the cells and 100 μL of Tropix/ABI Gal screen cell lysis/substrate reagent was added to the cells.

[5] = High conc (nocodazole 10 μg/mL, colchicine 1 μ/mL, dexamethasone 300 μM, RU486 30 μM)
[6] = Low conc (nocodazole 1.11 μg/mL, colchicine 0.1 μ/mL, dexamethasone 30 μM, RU486 3.33 μM)
[7] = Med conc (nocodazole 3.33 μg/mL, colchicine 0.3 μ/mL, dexamethasone 100 μM, RU486 10 μM)

Which Avg luminescence readout ([1]; 0.3 μg/mL) does the source give for `COC(=O)Nc1nc2ccc(C(=O)c3cccs3)cc2[nH]1` [Nocodazole, nocodazole] here?
Its Avg luminescence readout is 4443.

And the R1 luminescence readout ([1]; 0.3 μg/mL)?
The R1 luminescence readout was 4243.

And the R3 luminescence readout ([1]; 0.3 μg/mL)?
The R3 luminescence readout was 4599.

And the “Ratio (Avg vs 0 conc)” value ([1]; 0.3 μg/mL)?
Its value is 1.

What about the Avg luminescence readout ([1]; 1.0 μg/mL) of the same compound?
Its Avg luminescence readout is 6354.

What about the R1 luminescence readout ([1]; 1.0 μg/mL) of the same compound?
Its R1 luminescence readout is 6029.

What about the R3 luminescence readout ([1]; 1.0 μg/mL) of the same compound?
Its R3 luminescence readout is 6678.

And the “Ratio (Avg vs 0 conc)” value ([1]; 1.0 μg/mL)?
Its value is 2.

And the Avg luminescence readout ([1]; 3.3 μg/mL)?
The Avg luminescence readout was 6068.

What about the R1 luminescence readout ([1]; 3.3 μg/mL) of the same compound?
Its R1 luminescence readout is 5669.

What about the R3 luminescence readout ([1]; 3.3 μg/mL) of the same compound?
Its R3 luminescence readout is 6360.

And the “Ratio (Avg vs 0 conc)” value ([1]; 3.3 μg/mL)?
Its value is 2.

And the Avg luminescence readout ([1]; 10.0 μg/mL)?
The Avg luminescence readout was 5867.

What about the R1 luminescence readout ([1]; 10.0 μg/mL) of the same compound?
The R1 luminescence readout was 4401.

And the R3 luminescence readout ([1]; 10.0 μg/mL)?
The R3 luminescence readout was 5806.

What about the “Ratio (Avg vs 0 conc)” value ([1]; 10.0 μg/mL) of the same compound?
The value was 2.

And the “increase in EFC activity” value ([1]; treatment 1-10 μg/mL)?
Its value is ~2 fold.

And the Avg luminescence readout ([2]; 0.3 μg/mL)?
Its Avg luminescence readout is 15528.

And the R1 luminescence readout ([2]; 0.3 μg/mL)?
Its R1 luminescence readout is 15003.

What about the R3 luminescence readout ([2]; 0.3 μg/mL) of the same compound?
The R3 luminescence readout was 13585.

And the “Ratio (Avg vs 0 conc)” value ([2]; 0.3 μg/mL)?
The value was 2.

And the Avg luminescence readout ([2]; 1.0 μg/mL)?
The Avg luminescence readout was 24777.

And the R1 luminescence readout ([2]; 1.0 μg/mL)?
Its R1 luminescence readout is 23225.

What about the R3 luminescence readout ([2]; 1.0 μg/mL) of the same compound?
Its R3 luminescence readout is 24165.

And the “Ratio (Avg vs 0 conc)” value ([2]; 1.0 μg/mL)?
The value was 3.

And the Avg luminescence readout ([2]; 3.3 μg/mL)?
Its Avg luminescence readout is 23766.

What about the R1 luminescence readout ([2]; 3.3 μg/mL) of the same compound?
The R1 luminescence readout was 24010.

What about the R3 luminescence readout ([2]; 3.3 μg/mL) of the same compound?
The R3 luminescence readout was 23172.

What about the “Ratio (Avg vs 0 conc)” value ([2]; 3.3 μg/mL) of the same compound?
The value was 3.

And the Avg luminescence readout ([2]; 10.0 μg/mL)?
Its Avg luminescence readout is 25709.

And the R1 luminescence readout ([2]; 10.0 μg/mL)?
The R1 luminescence readout was 22978.

And the R3 luminescence readout ([2]; 10.0 μg/mL)?
The R3 luminescence readout was 28584.

What about the “Ratio (Avg vs 0 conc)” value ([2]; 10.0 μg/mL) of the same compound?
Its value is 3.

And the “effect of incubation with RU486 on the EFC response (in words)” value ([3]; 10 μM RU486 pre-incubation for one hour)?
The value was “not blocked by the incubation with RU486”.

What about the Avg luminescence readout [3, 5] of the same compound?
The Avg luminescence readout was 11592.

What about the R1 luminescence readout [3, 5] of the same compound?
Its R1 luminescence readout is 11504.

And the R3 luminescence readout [3, 5]?
Its R3 luminescence readout is 11616.

And the “Ratio (Avg vs 0 conc)” value [3, 5]?
The value was 4.

What about the Avg luminescence readout [3, 6] of the same compound?
Its Avg luminescence readout is 11575.

What about the R1 luminescence readout [3, 6] of the same compound?
Its R1 luminescence readout is 11488.

And the R3 luminescence readout [3, 6]?
Its R3 luminescence readout is 11606.

And the “Ratio (Avg vs 0 conc)” value [3, 6]?
The value was 4.

What about the Avg luminescence readout [3, 7] of the same compound?
The Avg luminescence readout was 11445.

What about the R1 luminescence readout [3, 7] of the same compound?
The R1 luminescence readout was 11364.

And the R3 luminescence readout [3, 7]?
The R3 luminescence readout was 11457.

And the “Ratio (Avg vs 0 conc)” value [3, 7]?
The value was 4.

And the Avg luminescence readout ([4]; 3.0 μg/mL)?
The Avg luminescence readout was 9887.

And the R1 luminescence readout ([4]; 3.0 μg/mL)?
The R1 luminescence readout was 9509.

And the R3 luminescence readout ([4]; 3.0 μg/mL)?
Its R3 luminescence readout is 9751.

What about the “Ratio (Avg vs 0 conc)” value ([4]; 3.0 μg/mL) of the same compound?
Its value is 1.4.

And the Avg luminescence readout ([4]; 10.0 μg/mL)?
The Avg luminescence readout was 12728.

What about the R1 luminescence readout ([4]; 10.0 μg/mL) of the same compound?
The R1 luminescence readout was 11991.

And the R3 luminescence readout ([4]; 10.0 μg/mL)?
The R3 luminescence readout was 12371.

And the “Ratio (Avg vs 0 conc)” value ([4]; 10.0 μg/mL)?
The value was 1.8.

What about the Avg luminescence readout ([4]; 30.0 μg/mL) of the same compound?
Its Avg luminescence readout is 11870.

And the R1 luminescence readout ([4]; 30.0 μg/mL)?
Its R1 luminescence readout is 10083.

What about the R3 luminescence readout ([4]; 30.0 μg/mL) of the same compound?
Its R3 luminescence readout is 12287.

What about the “Ratio (Avg vs 0 conc)” value ([4]; 30.0 μg/mL) of the same compound?
Its value is 1.6.

And the Avg luminescence readout ([4]; 100.0 μg/mL)?
Its Avg luminescence readout is 14898.

What about the R1 luminescence readout ([4]; 100.0 μg/mL) of the same compound?
The R1 luminescence readout was 13010.

What about the R3 luminescence readout ([4]; 100.0 μg/mL) of the same compound?
Its R3 luminescence readout is 16060.

What about the “Ratio (Avg vs 0 conc)” value ([4]; 100.0 μg/mL) of the same compound?
The value was 2.1.

And the “increase in EFC activity” value ([4]; overnight incubation)?
The value was ~2.1 fold.

For `CC#C[C@]1(O)CC[C@H]2[C@@H]3CCC4=CC(=O)CCC4=C3[C@@H](c3ccc(N(C)C)cc3)C[C@@]21C` [RU486], which Avg luminescence readout [3, 5] is on record?
Its Avg luminescence readout is 2882.

What about the R1 luminescence readout [3, 5] of the same compound?
The R1 luminescence readout was 3199.

What about the R3 luminescence readout [3, 5] of the same compound?
Its R3 luminescence readout is 2657.

What about the “Ratio (Avg vs 0 conc)” value [3, 5] of the same compound?
The value was 1.

What about the Avg luminescence readout [3, 6] of the same compound?
Its Avg luminescence readout is 2416.

What about the R1 luminescence readout [3, 6] of the same compound?
The R1 luminescence readout was 2692.

What about the R3 luminescence readout [3, 6] of the same compound?
Its R3 luminescence readout is 2298.

And the “Ratio (Avg vs 0 conc)” value [3, 6]?
The value was 1.

And the Avg luminescence readout [3, 7]?
Its Avg luminescence readout is 2402.

What about the R1 luminescence readout [3, 7] of the same compound?
Its R1 luminescence readout is 2578.

What about the R3 luminescence readout [3, 7] of the same compound?
Its R3 luminescence readout is 2249.

What about the “Ratio (Avg vs 0 conc)” value [3, 7] of the same compound?
Its value is 1.
